This is an account of results in patent publication US20230227466A1, “SUBSTITUTED THIENOPYRIMIDINES THAT INTERACT WITH THE RAS SUPERFAMILY FOR THE TREATMENT OF CANCERS, INFLAMMATORY DISEASES, RASOPATHIES, AND FIBROTIC DISEASE” (SHY Therapeutics, LLC, priority 2020, published 2023).

Test [1] has as its system MIA-PaCa-2 pancreatic cancer cell line (KRAS G12C). Put plainly: Cell proliferation assay (CellTiter 96 Aqueous One). In kind it is cell-based. The settings on record: Homo sapiens; for IC50: MIA PaCa-2, MIA PaCa-2; for inhibition at 10 µM: MIA PaCa-2, read-out: % inh cell proliferation (10 μM) in MIA PaCa-2. As to the method:
Cell lines: Human tumor-derived cell lines were purchased from American Type Culture Collection. Human tumor-derived pancreatic cancer cell line MIA-PACA2 (having a KRAS G12C mutation) and Panc-1 (having a KRAS G12D mutation), and Human non-small cell lung cancer (NSCLC) cell line A549 (having a KRAS G12S mutation) were grown in complete DMEM-High Glucose. Human colon cancer cell line SW-620 (having a KRAS G12V mutation) was grown in RPMI. All cell lines were supplemented with penicillin (100 U/mL), streptomycin (100 μg/mL), and 10% heat-inactivated FBS at 37° C. in a humidified incubator with 5% CO2.
Method: Cells were plated at 2000 to 5000 cells/well density in 96-wells plate and cultured overnight. Small molecules to be tested were added to the cells in the final concentration of 10 μM in the presence of 0.3% DMSO and 10% FBS, and incubated for 2-4 days at 37° C. in a humidified incubator with 5% CO2. For IC50 value determination, serial dilutions of compounds were added to cells under the same conditions.
Assay: At the end of the incubation period, cell viability was measured using the CellTiter 96® Aqueous One Solution Cell Proliferation Assay according to manufacturer specifications (Promega, Madison, Wis.). The percentage of small molecules inhibition of cellular proliferation was calculated from raw data.

Test [2] relates to ERK1/2 phosphorylation in Panc-1 cells. As to the kind of experiment: Western ERK1/2 cell-based phosphorylation assay. The arrangement: species or system human. The settings on record: at 10 μM, values in brackets < > are activation %, not inhibition. As for the experimental part:
Cell lines: Human tumor-derived pancreatic cancer cell line Panc-1 was purchased from American Type Culture Collection and grown in complete DMEM-High Glucose, supplemented with penicillin (100 U/mL), streptomycin (100 μg/mL), and 10% heat-inactivated FBS at 37° C. in a humidified incubator with 5% CO2.
Method: Cells were plated at 350000 cells/well density in a 12-well plate, allowed 3 hours to adhere to the plate, then starved in the appropriate medium in the presence of 0.5% FBS overnight. The small molecules to be tested were added to the cells in the final concentration of 10 μM in the presence of 0.3% DMSO for 6 hours incubation at 37° C. For IC50 value determination, serial dilutions of compounds were added to cells under the same conditions. Next, cells were stimulated with 1.5 ng/ml EGF for 15 minutes then cells were lysed with lysis buffer containing 1% Triton X-100, EDTA, and Halt™ Protease & Phosphatase Inhibitor Cocktail (Thermo Scientific). Protein concentration was assessed by BCA protein assay (Thermo Scientific). Phosphorylation level of ERK1/2 was determined by western blot.
Western blot protocol: Equal amounts of protein (15-50 μg) were separated by SDS-PAGE and transferred to nitrocellulose membranes (Invitrogen by Thermo Fisher Scientific). The membrane was stained with Ponceau S Stain (Boston BioProducts) to verify uniform protein loading. Membranes were blocked with 10% milk and phosphorylation levels of ERK1/2 were assessed by incubating overnight at 4° C. with anti-phospho-p44/42 (Thr202/Tyr204) antibody (Cell Signaling) followed by HRP-conjugated secondary antibody (Jackson Immunoresearch, West Grove, Pa.). Bands were incubated in Amersham ECL Prime Western Blotting Detection Reagent (GE Healthcare) and visualized using the ChemiDoc MP imaging system (Bio-Rad). Protocol for Western AKT cell-based phosphorylation assay

Take `COCCn1ccnc1-c1nc(N[C@@H]2CC[C@H](OC)C2)c2c(-c3ccccc3)c(-c3ccn(C)n3)sc2n1` (racemic) [Compound 6, Rac-N-((1R,3S)-3-methoxycyclopentyl)-2-(1-(2-methoxyethyl)-1H-imidazol-2-yl)-6-(1-methyl-1H-pyrazol-3-yl)-5-phenylthieno[2,3-d]pyrimidin-4-amine]: in test [1], the half-inhibitory concentration (IC50) lay within 1 to 4.99 µM and the inhibition at 10 µM is 76 to 100%. Moreover, the “% inh of ERK1/2 phosphorylation in PANC-1” value (shortened to “% inh”) in test [2] is “D (76-100% inhibition)”.
For `COCCn1ccnc1-c1nc(N[C@@H]2CC[C@H](OC)C2)c2ccsc2n1` (racemic) [Compound 8, Rac-N-((1R,3S)-3-methoxycyclopentyl)-2-(1-(2-methoxyethyl)-1H-imidazol-2-yl)thieno[2,3-d]pyrimidin-4-amine] the same measures were above 10 µM, 26 to 50% and 0 (0% inhibition).
For the compound `CO[C@H]1CC[C@@H](Nc2nc(-c3nccn3C)nc3sccc23)C1` (racemic) [Compound 10, Rac-N-((1R,3S)-3-methoxycyclopentyl)-2-(1-methyl-1H-imidazol-2-yl)thieno[2,3-d]pyrimidin-4-amine], in test [1], the half-inhibitory concentration (IC50) is above 10 µM and the inhibition at 10 µM lay within 26 to 50%. In addition, in test [2], the “% inh” value is “A (1-25% inhibition)”.
For `CO[C@H]1CC[C@@H](Nc2nc(C(N)=O)nc3sccc23)C1` (racemic) [Compound 11, Rac-4-(((1R,3S)-3-methoxycyclopentyl)amino)thieno[2,3-d]pyrimidine-2-carboxamide], in test [1], the IC50 is above 10 µM and the inhibition at 10 µM fell in the range of 1 to 25%. Besides, the “% inh” value in test [2] is reported as 0 (0% inhibition).
For `CO[C@H]1CC[C@@H](Nc2nc(C(=O)N3CCOCC3)nc3sccc23)C1` (racemic) [Compound 12, Rac-(4-(((1R,3S)-3-methoxycyclopentyl)amino)thieno[2,3-d]pyrimidin-2-yl)(morpholino)methanone] the same measures were above 10 µM, 1 to 25% and 0 (0% inhibition).
For `CO[C@H]1CC[C@@H](Nc2nc(C(=O)NC(C)C)nc3sccc23)C1` (racemic) [Compound 13, Rac-N-isopropyl-4-(((1R,3S)-3-methoxycyclopentyl)amino)thieno[2,3-d]pyrimidine-2-carboxamide] the same measures were above 10 µM, 0% and 0 (0% inhibition).
On the same counts, the results for `COCCNC(=O)c1nc(N[C@@H]2CC[C@H](OC)C2)c2ccsc2n1` (racemic) [Compound 14, rac-4-(((1R,3S)-3-Methoxycyclopentyl)amino)-N-(2-methoxyethyl)thieno[2,3-d]pyrimidine-2-carboxamide] are above 10 µM, 0% and 0 (0% inhibition).
Take `CO[C@H]1CC[C@@H](Nc2nc(C(=O)Nc3ccccc3)nc3sccc23)C1` (racemic) [Compound 15, rac-4-(((1R,3S)-3-Methoxycyclopentyl)amino)-N-phenylthieno[2,3-d]pyrimidine-2-carboxamide]: in test [1], the half-maximal inhibitory concentration (IC50) was above 10 µM and the inhibition at 10 µM is 1 to 25%. In addition, in test [2], the “% inh” value is reported as 0 (0% inhibition).
In the case of `CO[C@H]1CC[C@@H](Nc2nc(C(=O)Nc3ccccn3)nc3sccc23)C1` (racemic) [Compound 16, rac-4-(((1R,3S)-3-Methoxycyclopentyl)amino)-N-(pyridin-2-yl)thieno[2,3-d]pyrimidine-2-carboxamide], in test [1], the IC50 was above 10 µM and the inhibition at 10 µM was in the range of 1 to 25%. Besides, the “% inh” value in test [2] is 0 (0% inhibition).
On the same counts, the results for `CO[C@H]1CC[C@@H](Nc2nc(C(N)=O)nc3sc(-c4ccn(C(C)C)n4)cc23)C1` (racemic) [Compound 17, Rac-6-(1-isopropyl-1H-pyrazol-3-yl)-4-(((1R,3S)-3-methoxycyclopentyl)amino)thieno[2,3-d]pyrimidine-2-carboxamide] are above 10 µM, 1 to 25% and “A (1-25% inhibition)”.
For `CO[C@H]1CC[C@@H](Nc2nc(C(=O)N3CCCC3)nc3sccc23)C1` (racemic) [Compound 25, Rac-(4-(((1R,3S)-3-Methoxycyclopentyl)amino)thieno[2,3-d]pyrimidin-2-yl)(pyrrolidin-1-yl)methanone] the same measures were above 10 µM, 1 to 25% and 0 (0% inhibition).
On the same counts, the results for `Cc1c(-c2ccn(C(C)C)n2)sc2nc(-c3nccn3C)nc(NC3CCOC3)c12` (racemic) [Compound 37, rac-6-(1-Isopropyl-1H-pyrazol-3-yl)-5-methyl-2-(1-methyl-1H-imidazol-2-yl)-N-(tetrahydrofuran-3-yl)thieno[2,3-d]pyrimidin-4-amine] are 5 to 10 µM, 51 to 75% and 0 (0% inhibition).
As to `COCC1COCCN1c1nc(-c2nccn2C)nc2sc(-c3ccn(C(C)C)n3)c(C)c12` (racemic) [Compound 41, rac-4-(6-(1-Isopropyl-1H-pyrazol-3-yl)-5-methyl-2-(1-methyl-1H-imidazol-2-yl)thieno[2,3-d]pyrimidin-4-yl)-3-(methoxymethyl)morpholine], in test [1], the IC50 is 5 to 10 µM and the inhibition at 10 µM is 51 to 75%. The “% inh” value in test [2] is reported as 0 (0% inhibition).
On the same counts, the results for `COCC1CN(c2nc(-c3nccn3C)nc3sc(-c4ccn(C(C)C)n4)c(C)c23)CCO1` (racemic) [Compound 45, rac-4-(6-(1-Isopropyl-1H-pyrazol-3-yl)-5-methyl-2-(1-methyl-1H-imidazol-2-yl)thieno[2,3-d]pyrimidin-4-yl)-2-(methoxymethyl)morpholine] are 5 to 10 µM, 26 to 50% and “B (26-50% inhibition)”.
For `Cc1c(-c2ccn(C(C)C)n2)sc2nc(-c3nccn3C)nc(NCCC3CCC(=O)N3)c12` (racemic) [Compound 56, rac-5-(2-((6-(1-Isopropyl-1H-pyrazol-3-yl)-5-methyl-2-(1-methyl-1H-imidazol-2-yl)thieno[2,3-d]pyrimidin-4-yl)amino)ethyl)pyrrolidin-2-one] the same measures were above 10 µM, 1 to 25% and 0 (0% inhibition).
On the same counts, the results for `CO[C@@H]1CC[C@H]1CNc1nc(-c2nccn2C)nc2sc(-c3ccn(C(C)C)n3)c(C)c12` (racemic) [Compound 61, rac-6-(1-Isopropyl-1H-pyrazol-3-yl)-N-(((1S,2R)-2-methoxycyclobutyl)methyl)-5-methyl-2-(1-methyl-1H-imidazol-2-yl)thieno[2,3-d]pyrimidin-4-amine] are below 1 µM, 76 to 100% and “D (76-100% inhibition)”.
For the compound `Cc1c(-c2ccn(C(C)C)n2)sc2nc(-c3nccn3C)nc(N3CCC(COC(C)C)C3)c12` (racemic) [Compound 62, rac-4-(3-(Isopropoxymethyl)pyrrolidin-1-yl)-6-(1-isopropyl-1H-pyrazol-3-yl)-5-methyl-2-(1-methyl-1H-imidazol-2-yl)thieno[2,3-d]pyrimidine], in test [1], the IC50 is below 1 µM and the inhibition at 10 µM fell in the range of 76 to 100%. The “% inh” value in test [2] was “D (76-100% inhibition)”.
On the same counts, the results for `COC1CCCN(c2nc(-c3ccccn3)nc3sc(-c4ccn(C(C)C)n4)c(C)c23)C1` (racemic) [Compound 70, Rac-6-(1-Isopropyl-1H-pyrazol-3-yl)-4-(3-methoxypiperidin-1-yl)-5-methyl-2-(pyridin-2-yl)thieno[2,3-d]pyrimidine] are 5 to 10 µM, 76 to 100% and 0 (0% inhibition).

One may read the IC50 as the concentration needed to halve the response being measured.
